Data from PMC4865847, “Putative histidine kinase inhibitors with antibacterial effect against multi-drug resistant clinical isolates identified by in vitro and in silico screens” (Scientific Reports, 2016).
≈ marks a conversion by molar mass, not a printed value. Like-named read-outs stand apart in the source and are kept apart here.

How the values were obtained:
Hemolysis assay = assay type: cell-based; conditions: human; erythrocytes from a healthy donor, up to 500 μg/ml, three independent incubations; read-out: LC50 hemolysis
Protocol: Hemolytic activity against human erythrocytes taken from a healthy donor was measured as previously described. The hemolysis experiments were carried out in accordance with the guidelines of the United Arab Emirates University (UAEU) Research Ethics Review Board. All experimental protocols were approved by the Research Ethics Review Board of UAEU and informed consent was obtained from all donors.

Streptococcus pneumoniae = test: Antibacterial susceptibility testing (MIC), S. pneumoniae; assay type: cell-based; conditions: strain 49619
Protocol: (§1) Bacterial strains used in this study for antibacterial susceptibility testing (Table S5) were propagated using standard microbiological procedures. Minimal inhibitory concentrations (MICs) were determined following a standard double-dilution method. MICs were recorded as the lowest concentration of the compound where no visible growth was observed. After plating the dilutions around the MIC or growing them in fresh MH media, minimal bactericidal concentration (MBC) was recorded as the lowest concentration of the compound at which no colonies were formed or no growth was observed, respectively. For S. pneumoniae MICs were determined by adapting the standard double-dilution method to anaerobic conditions and of this microorganism (use of Todd Hewitt Yeast extract with 200 U/mL of catalase and continuous monitoring of growth).

Streptococcus suis = test: Antibacterial susceptibility testing (MIC), S. suis; assay type: cell-based; conditions: Streptococcus suis, read-out: MIC Streptococcus suis 3881/S10, strain 3881/S10
Protocol: as §1

Klebsiella pneumoniae = test: Antibacterial susceptibility testing (MIC), K. pneumoniae; assay type: cell-based; conditions: Klebsiella pneumoniae, ATCC700603, strain ATCC 700603
Protocol: as §1

E. coli PhoR (PhoR^E) = molecular target: T1, E. coli PhoR (PhoR^E) (Escherichia coli, UniProt P08400); test: In vitro autophosphorylation kinase assay with γ-32P-ATP, PhoR^E; assay type: biochemical; conditions: IC50 PhoR^E, autophosphorylation, one time point (30 sec), 10% DMSO
T1 construct: The catalytic portion (DHp and CA domain) of E. coli PhoR (PhoR^E); made in house; host or cells: E. coli RIL
T1 sequence (P08400 210-425): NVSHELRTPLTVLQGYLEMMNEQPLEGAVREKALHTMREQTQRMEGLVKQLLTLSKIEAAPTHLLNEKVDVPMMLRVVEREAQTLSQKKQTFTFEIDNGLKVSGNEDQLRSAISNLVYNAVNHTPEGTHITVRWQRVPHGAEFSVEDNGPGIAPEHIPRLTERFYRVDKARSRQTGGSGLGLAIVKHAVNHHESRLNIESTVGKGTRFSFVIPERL
In short: (§2)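 Histidine kinase (0.12 mg/ml, ≈4 μM) incubated with up to 20 mM fragment in 50 mM Tris HCl pH 8.5, 50 mM KCl, 5 mM MgCl2, 0.5 mM EDTA, 0.1 mM DTT; started with 0.1 μCi/μl γ-32P-ATP (0.03–0.06 μM ATP final). Phosphoprotein quantified by SDS-PAGE and phosphor-imaging, curve-fitted; DMSO controls.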

[1] = tested on: Staphylococcus epidermidis; test: Antibacterial susceptibility testing (MIC/MBC), S. epidermidis; assay type: cell-based
Protocol: (§3) Minimal inhibitory concentrations (MICs) were determined following a standard double-dilution method. […] For S. pneumoniae MICs were determined by adapting the standard double-dilution method to anaerobic conditions and of this microorganism (use of Todd Hewitt Yeast extract with 200 U/mL of catalase and continuous monitoring of growth).

Acinetobacter baumannii = test: Antibacterial susceptibility testing (MIC), A. baumannii; assay type: cell-based; conditions: MDR clinical isolate NM8, read-out: MIC A. baumannii NM8
Protocol: as §1

Staphylococcus aureus = test: Antibacterial susceptibility testing (MIC/MBC), S. aureus; assay type: cell-based; conditions: Staphylococcus aureus
Protocol: as §3

Escherichia coli = test: Antibacterial susceptibility testing (MIC/MBC), E. coli; assay type: cell-based; conditions: Escherichia coli
Protocol: as §3

S. pneumoniae WalK = molecular target: T2, S. pneumoniae WalK (Streptococcus pneumoniae, UniProt Q8DPL8); test: In vitro autophosphorylation kinase assay with γ-32P-ATP, WalK; assay type: biochemical; conditions: IC50 WalK, autophosphorylation, one time point (30 sec), 10% DMSO
T2 construct: WalK (amino acids from 208 to 449); N-terminal His6-3C site of vector pOPINF (own knowledge of the vector); made in house; host or cells: E. coli RIL
T2 sequence (Q8DPL8 208-449): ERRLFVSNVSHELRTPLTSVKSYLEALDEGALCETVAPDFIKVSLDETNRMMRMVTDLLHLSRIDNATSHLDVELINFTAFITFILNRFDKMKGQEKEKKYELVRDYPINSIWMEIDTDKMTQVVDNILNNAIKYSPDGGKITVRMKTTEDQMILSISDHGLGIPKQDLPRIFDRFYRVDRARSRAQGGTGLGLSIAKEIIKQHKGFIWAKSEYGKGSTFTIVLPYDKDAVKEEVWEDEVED
In short: as §2

[2] = tested on: Stenotrophomonas maltophilia; test: Antibacterial susceptibility testing (MIC), S. maltophilia; assay type: cell-based; conditions: clinical isolate B32/1, read-out: MIC S. maltophilia B32/1
Protocol: as §1

Pseudomonas aeruginosa = test: Antibacterial susceptibility testing (MIC), P. aeruginosa; assay type: cell-based; conditions: Pseudomonas aeruginosa, ATCC27853; strain ATCC 27853
Protocol: as §1

E. coli = tested on: E. coli; design: method as in PMID 25561178; conditions: cited from earlier work
S. epidermidis YycG = tested on: S. epidermidis YycG; design: method as in PMID 24737057; conditions: read-out: IC50 S. epidermidis YycG (WalK) autophosphorylation; cited from earlier work
Gram positive strains = conditions: cited from earlier work

## NCCc1ccc2c(c1)[nH]c1ccccc12 [F2.3]
Hemolysis assay
  HC50: > 500 µg/mL
Streptococcus pneumoniae
  MIC: 4 µg/mL (≈ 19 µM)
Streptococcus suis
  MIC: > 500 µg/mL
Klebsiella pneumoniae
  MIC: > 500 µg/mL
E. coli PhoR (PhoR^E)
  IC50: > 2000 µM
[1]; Staphylococcus epidermidis, DSM20044, strain DSM 20044
  MBC: 63 µg/mL (≈ 300 µM)
[1]; Staphylococcus epidermidis, DSM20044, strain DSM 20044, read-out: MIC S. epidermidis DSM 20044
  MIC: 31 to 500 µg/mL (≈ 147 to 2380 µM)
[1]; Staphylococcus epidermidis, clinical isolate T7/3, read-out: MIC S. epidermidis T7/3
  MIC: 31 µg/mL (≈ 147 µM)
[1]; Staphylococcus epidermidis, clinical isolate T37/8, read-out: MIC S. epidermidis T37/8
  MIC: 125 µg/mL (≈ 594 µM)
[1]; Staphylococcus epidermidis, clinical isolate T6119, read-out: MIC S. epidermidis T6119
  MIC: 125 µg/mL (≈ 594 µM)
[1]; Staphylococcus epidermidis, strain RP62A (biofilm producer), read-out: MIC S. epidermidis RP62A
  MIC: 125 µg/mL (≈ 594 µM)
[1]; Staphylococcus epidermidis, strain RP62A/1 (non-biofilm producer), read-out: MIC S. epidermidis RP62A/1
  MIC: 125 µg/mL (≈ 594 µM)
[1]; Staphylococcus epidermidis, summary over strains, read-out: MICs for the S. epidermidis strains
  MIC: 31 to 250 µg/mL (≈ 147 to 1190 µM)
[1]; strain DSM 20044
  MIC S. epidermidis DSM 20044: 31 µg/mL (≈ 147 µM)
Acinetobacter baumannii
  MIC: > 500 µg/mL
Staphylococcus aureus; ATCC reference strain 25293, read-out: MIC S. aureus 25293
  MIC: 125 µg/mL (≈ 594 µM)
Staphylococcus aureus; DSM20231, strain DSM 20231, read-out: MBC S. aureus DSM 20231
  MBC: > 500 µg/mL
Staphylococcus aureus; MRSA clinical isolate 127/08, read-out: MIC S. aureus 127/08
  MIC: 250 µg/mL (≈ 1190 µM)
Staphylococcus aureus; MRSA clinical isolate 145/08, read-out: MIC S. aureus 145/08
  MIC: 250 µg/mL (≈ 1190 µM)
Staphylococcus aureus; MRSA clinical isolate 274/08, read-out: MIC S. aureus 274/08
  MIC: > 500 µg/mL
Staphylococcus aureus; MRSA, MRSA clinical isolate S908, read-out: MIC S. aureus S908
  MIC: 250 µg/mL (≈ 1190 µM)
Staphylococcus aureus; MRSA, MRSA clinical isolate T4/6, read-out: MIC S. aureus T4/6
  MIC: 250 µg/mL (≈ 1190 µM)
Staphylococcus aureus; MRSA, MRSA clinical isolate V4180, read-out: MIC S. aureus V4180
  MIC: 250 µg/mL (≈ 1190 µM)
Staphylococcus aureus; MRSA, summary over strains, read-out: MICs for the MRSA strains and S. aureus 25293
  MIC: 125 to 500 µg/mL (≈ 594 to 2380 µM)
Escherichia coli; ATCC25276, strain ATCC 25276, read-out: MIC E. coli ATCC 25276
  MIC: > 500 µg/mL
Escherichia coli; strain CFT 073, read-out: MIC E. coli CFT 073
  MIC: > 500 µg/mL
S. pneumoniae WalK
  IC50: > 2000 µM
[2]
  MIC: > 500 µg/mL
Pseudomonas aeruginosa
  MIC: > 500 µg/mL

## teixobactin
E. coli
  antibacterial effect (MIC) against E. coli: 2 to 25 µg/mL

## O=C(O)c1ccc(-c2ccc(/C=C3\S/C(=N\c4ccccc4)N(c4ccc(F)cc4)C3=O)s2)cc1 [H2-81]
S. epidermidis YycG
  IC50: 24 µM
Gram positive strains
  MIC Gram positive: ≥ 0.75 µg/mL
